{"source": "paper PMC5896574", "about": "(ChemMedChem, 2017)", "key": {"HIV-1LAI": {"test_system": "HIV-1LAI", "test": "Antiviral assay using MT-2 cells exposed to HIV-1LAI", "type": "cell-based"}, "HIVAO2": {"test_system": "HIVAO2", "test": "Antiviral activity of 3b against HIVAO2", "type": "cell-based, HIV"}, "HIV-2ROD": {"test_system": "HIV-2ROD", "test": "Antiviral activity of 3b against HIV-2ROD", "type": "cell-based", "conditions": "read-out: Antiviral activity (EC50)"}, "HIVDRV^RP20": {"test_system": "HIVDRV^RP20", "test": "Antiviral activity of 3b against HIVDRV^RP20", "type": "cell-based, HIV", "conditions": "read-out: Antiviral activity (EC50)"}, "HIV-1 protease": {"target": "HIV-1 protease (Human immunodeficiency virus type 1 group M subtype B, UniProt P04585)", "test": "HIV-1 protease inhibitory assay", "type": "biochemical"}, "HIV-1NL4-3": {"test_system": "HIV-1NL4-3", "test": "Antiviral p24 assay, MT-4 cells exposed to wild-type HIV-1NL4-3", "type": "cell-based"}, "HIV-1DRV^RP20": {"test_system": "HIV-1DRV^RP20", "test": "microbe, parasite or virus in culture", "type": "cell-based", "conditions": "for fold change of IC50: HIV-1DRV^RP20 relative to HIV-1NL4-3"}, "HIV-1DRV^RP30": {"test_system": "HIV-1DRV^RP30", "test": "microbe, parasite or virus in culture", "type": "cell-based", "conditions": "for fold change of IC50: HIV-1DRV^RP30 relative to HIV-1NL4-3"}, "HIV-1DRV^RP40": {"test_system": "HIV-1DRV^RP40", "test": "microbe, parasite or virus in culture", "type": "cell-based", "conditions": "for fold change of IC50: HIV-1DRV^RP40 relative to HIV-1NL4-3"}, "[1]": {"conditions": "read-out: antiviral IC50, MT-2 cells exposed to HIV-1LAI, mean of at least three experiments"}, "[2]": {"conditions": "Human immunodeficiency virus 1, MT2, read-out: antiviral IC50"}, "[3]": {"conditions": "Human immunodeficiency virus 1, MT4"}}, "note": "Read-outs that look alike come from different tables or passages of the source.", "data": [{"compound": "CC(C)CN(C[C@@H](O)[C@H](Cc1ccccc1)NC(=O)O[C@H]1CO[C@H]2OCC[C@H]21)S(=O)(=O)c1ccc(C(=O)O)cc1", "note": "[3a, 4-(N-((2R,3S)-3-(((((3R,3aS,6aR)-Hexahydrofuro[2,3-b]furan-3-yl)oxy)carbonyl)amino)-2-hydroxy-4-phenylbutyl)-N-isobutylsul-famoyl)benzoic acid]", "values": [{"measurement": "IC50", "setting": "HIV-1LAI; read-out: antiviral IC50, MT-2 cells exposed to HIV-1LAI", "result": "> 1000", "unit": "nM"}]}, {"compound": "CC(C)CN(C[C@@H](O)[C@H](Cc1ccccc1)NC(=O)O[C@H]1CO[C@H]2OCC[C@H]21)S(=O)(=O)c1ccc(C(N)=O)cc1", "note": "[3b, (3R,3aS,6aR)-Hexahydrofuro[2,3-b]furan-3-yl ((2S,3R)-4-((4-carba-moyl-N-isobutylphenyl)sulfonamido)-3-hydroxy-1-phenylbutan-2-yl)carbamate]", "values": [{"measurement": "IC50", "setting": "HIV-1LAI; [1]", "result": 45, "unit": "nM"}, {"measurement": "EC50", "setting": "HIVAO2", "result": 29, "unit": "nM"}, {"measurement": "EC50", "setting": "HIV-2ROD", "result": 30, "unit": "nM"}, {"measurement": "EC50", "setting": "HIVDRV^RP20", "result": 97, "unit": "nM"}]}, {"compound": "CC(C)CN(C[C@@H](O)[C@H](Cc1ccccc1)NC(=O)O[C@H]1CO[C@H]2OCC[C@H]21)S(=O)(=O)c1ccc([C@@H](C)O)cc1", "note": "[3e, (3R,3aS,6aR)-Hexahydrofuro[2,3-b]furan-3-yl ((2S,3R)-3-hydroxy-4-((4-((R)-1-hydroxyethyl)-N-isobutylphenyl)sulfonamido)-1-phe-nylbutan-2-yl)carbamate]", "values": [{"measurement": "IC50", "setting": "HIV-1LAI; [1]", "result": 4, "unit": "nM"}]}, {"compound": "COC(=O)c1coc(-c2ccc(S(=O)(=O)N(CC(C)C)C[C@@H](O)[C@H](Cc3ccccc3)NC(=O)O[C@H]3CO[C@H]4OCC[C@H]43)cc2)n1", "note": "[3g, Methyl 2-(4-(N-((2R,3S)-3-(((((3R,3aS,6aR)-hexahydrofuro[2,3-b]furan-3-yl)oxy)carbonyl)amino)-2-hydroxy-4-phenylbutyl)-N-isobutylsulfamoyl)phenyl)oxazole-4-carboxylate]", "values": [{"measurement": "Ki", "setting": "HIV-1 protease", "result": 0.0279, "unit": "nM"}, {"measurement": "IC50", "setting": "HIV-1LAI; [2]", "result": 6.2, "unit": "nM"}, {"measurement": "IC50", "setting": "HIV-1NL4-3; [3]", "result": 22, "unit": "nM"}, {"measurement": "fold change of IC50", "setting": "HIV-1DRV^RP20", "result": 15}, {"measurement": "IC50", "setting": "HIV-1DRV^RP20; [3]", "result": 320, "unit": "nM"}, {"measurement": "fold change of IC50", "setting": "HIV-1DRV^RP30", "result": 20}, {"measurement": "IC50", "setting": "HIV-1DRV^RP30; [3]", "result": 430, "unit": "nM"}, {"measurement": "fold change of IC50", "setting": "HIV-1DRV^RP40", "result": "> 46"}, {"measurement": "IC50", "setting": "HIV-1DRV^RP40; [3]", "result": "> 1000", "unit": "nM"}]}, {"compound": "CC(C)CN(C[C@@H](O)[C@H](Cc1ccccc1)NC(=O)O[C@H]1CO[C@H]2OCC[C@H]21)S(=O)(=O)c1ccc(-c2nc(CO)co2)cc1", "note": "[3h, (3R,3aS,6aR)-Hexahydrofuro[2,3-b]furan-3-yl ((2S,3R)-3-hydroxy-4-((4-(4-(hydroxymethyl)oxazol-2-yl)-N-isobutylphenyl)sulfona-mido)-1-phenylbutan-2-yl)carbamate]", "values": [{"measurement": "IC50", "setting": "HIV-1LAI; [1]", "result": 3.9, "unit": "nM"}, {"measurement": "IC50", "setting": "HIV-1NL4-3; MT-4 cells, 50 TCID50 HIV-1NL4-3, p24 assay", "result": 3, "unit": "nM"}, {"measurement": "fold change of IC50", "setting": "HIV-1DRV^RP20", "result": 88}, {"measurement": "IC50", "setting": "HIV-1DRV^RP20; MT-4 cells, 50 TCID50 HIV-1DRV^RP20, p24 assay", "result": 260, "unit": "nM"}, {"measurement": "fold change of IC50", "setting": "HIV-1DRV^RP30", "result": 99}, {"measurement": "IC50", "setting": "HIV-1DRV^RP30; MT-4 cells, 50 TCID50 HIV-1DRV^RP30, p24 assay", "result": 290, "unit": "nM"}, {"measurement": "fold change of IC50", "setting": "HIV-1DRV^RP40", "result": "> 337"}, {"measurement": "IC50", "setting": "HIV-1DRV^RP40; MT-4 cells, 50 TCID50 HIV-1DRV^RP40, p24 assay", "result": "> 1000", "unit": "nM"}]}, {"compound": "CC(C)CN(CC(O)C(Cc1ccccc1)NC(=O)OC1COC2OCCC12)S(=O)(=O)c1ccc(-c2cnco2)cc1", "note": "[3i, (3R,3aS,6aR)-Hexahydrofuro[2,3-b]furan-3-yl ((2S,3R)-3-hydroxy-4-((N-isobutyl-4-(oxazol-5-yl)phenyl)sulfonamido)-1-phenylbu-tan-2-yl)carbamate]", "values": [{"measurement": "IC50", "setting": "HIV-1LAI; [1]", "result": 2.8, "unit": "nM"}]}, {"compound": "CC(C)CN(C[C@@H](O)[C@H](Cc1ccccc1)NC(=O)O[C@H]1CO[C@H]2OCC[C@H]21)S(=O)(=O)c1ccc(N)cc1", "note": "[DRV, darunavir, reference compound]", "values": [{"measurement": "IC50", "setting": "HIV-1LAI; [2]", "result": 1.6, "unit": "nM"}, {"measurement": "IC50", "setting": "HIV-1NL4-3; [3]", "result": 3.4, "unit": "nM"}, {"measurement": "IC50", "setting": "HIV-1DRV^RP20; [3]", "result": 43, "unit": "nM"}, {"measurement": "IC50", "setting": "HIV-1DRV^RP40; [3]", "result": "> 1000", "unit": "nM"}]}]}
